Holding throughout (assay): microbe, parasite or virus in culture
Assay [1] concerns rRMP (Rifampicin-resistant TB strain). It is filed as cell-based, Mycobacterium tuberculosis.
Assay [2] deals with rINH (Isoniazid-resistant TB strain). Type of assay: cell-based, Mycobacterium tuberculosis.
The subject of assay [3] is rKM (Kanamycin-resistant TB strain). Type of assay: cell-based, Mycobacterium tuberculosis.
In assay [4] the test system is rSM (Streptomycin-resistant TB strain). It is filed as cell-based, Mycobacterium tuberculosis.
The test system of assay [5] is MDR-TB strain resistant to HRESP. Type of assay: cell-based. To be noted: Mycobacterium tuberculosis.
Assay [6] deals with MDR-TB strain resistant to HREZSP. Type of assay: cell-based. As to conditions: Mycobacterium tuberculosis.
Assay [7] has as its system MDR-TB strain resistant to HCPTh. Type of assay: cell-based. To be noted: Mycobacterium tuberculosis.
Assay [8] deals with MDR-TB strain resistant to HREKP. Type of assay: cell-based. As to conditions: Mycobacterium tuberculosis.
Assay [9] has as its system MDR-TB strain resistant to HRERb* (column 5). Type of assay: cell-based. To be noted: Mycobacterium tuberculosis.
The test system of assay [10] is MDR-TB strain resistant to HREZSKPTh. Type of assay: cell-based. To be noted: Mycobacterium tuberculosis.
Assay [11] has as its system MDR-TB strain resistant to HRERb* (column 7). Type of assay: cell-based. As to conditions: Mycobacterium tuberculosis.
Assay [12] deals with MDR-TB strain resistant to HRERb* (column 8). It is filed as cell-based. To be noted: Mycobacterium tuberculosis.
Assay [13] has as its system MDR-TB strain resistant to HREZRbTh. Type of assay: cell-based. To be noted: Mycobacterium tuberculosis.
The subject of assay [14] is extreme drug-resistant TB strain HRESPOCTh. It is filed as cell-based. To be noted: Mycobacterium tuberculosis.
Assay [15] relates to extreme drug-resistant TB strain HREPKOTh. It is filed as cell-based. To be noted: Mycobacterium tuberculosis.
In assay [16] the test system is extreme drug-resistant TB strain HRESPO. It is filed as cell-based. As to conditions: Mycobacterium tuberculosis.
[17] abbreviates: single drug resistant strain rRMP.
Setting [18] is: single drug resistant strain rINH.
[19] abbreviates: single drug resistant strain rKM.

Structures are written as SMILES. Values after ≈ are worked out from the molar mass of the structure shown. Like-named read-outs stand apart in the source and are kept apart here. A value given as a limit tells only on which side of the number the result lay.

`NNC(=O)c1ccncc1` [INH, Isoniazid, reference compound]: the MIC90 in assay [1] (Mycobacterium tuberculosis) is 0.23 µM (≈ 0.0315 µg/mL); in assay [2] (Mycobacterium tuberculosis), more than 8 µM.

Consider `COc1c(N2C[C@@H]3CCCN[C@@H]3C2)c(F)cc2c(=O)c(C(=O)O)cn(C3CC3)c12` [Moxifloxacin, reference compound], for which the MIC90 in assay [1] (Mycobacterium tuberculosis) was 0.1 µM (≈ 0.0401 µg/mL); in assay [2] (Mycobacterium tuberculosis) it was 0.12 µM (≈ 0.0482 µg/mL); in assay [3] (Mycobacterium tuberculosis), 0.24 µM (≈ 0.0963 µg/mL); in assay [4] (Mycobacterium tuberculosis), 0.15 µM (≈ 0.0602 µg/mL).

Consider `Cc1ccn2c(C(=O)NCc3ccccc3)c(C)nc2c1` [ND-8454, N-benzyl-2,7-dimethylimidazo[1,2-a]pyridine-3-carboxamide], for which the MIC90 in assay [1] (Mycobacterium tuberculosis) came to 0.28 µM (≈ 0.0782 µg/mL); in [2] (Mycobacterium tuberculosis) it was 0.33 µM (≈ 0.0922 µg/mL); in assay [3] (Mycobacterium tuberculosis), 1.07 µM (≈ 0.299 µg/mL); in assay [4] (Mycobacterium tuberculosis) it was 1.02 µM (≈ 0.285 µg/mL); in assay [5], 0.625 µg/mL (≈ 2.24 µM); in assay [6], 0.312 µg/mL (≈ 1.12 µM). The MIC90 is 0.313 µg/mL (≈ 1.12 µM) in assay [7]; 0.078 µg/mL (≈ 0.279 µM) in assay [8]; 0.039 µg/mL (≈ 0.14 µM) in assay [9]; 0.019 µg/mL (≈ 0.068 µM) in [10]; 0.039 µg/mL (≈ 0.14 µM) in assay [11]; 0.078 µg/mL (≈ 0.279 µM) in [12]. Besides, the MIC90 was 0.039 µg/mL (≈ 0.14 µM) in assay [13], 0.02 µg/mL (≈ 0.0716 µM) in [14], 0.02 µg/mL (≈ 0.0716 µM) in assay [15] and 0.039 µg/mL (≈ 0.14 µM) in assay [16].

Consider `Cc1ccn2c(C(=O)NCc3cccc(F)c3)c(C)nc2c1` [ND-9361], for which the MIC90 is 0.078 µg/mL (≈ 0.262 µM) in assay [5]; 0.019 µg/mL (≈ 0.0639 µM) in assay [6]; 0.078 µg/mL (≈ 0.262 µM) in assay [8]; 0.039 µg/mL (≈ 0.131 µM) in assay [9]; 0.019 µg/mL (≈ 0.0639 µM) in [10]; 0.01 µg/mL (≈ 0.0336 µM) in assay [11]. For the same compound, the MIC90 stood at 0.078 µg/mL (≈ 0.262 µM) in [12]; 0.019 µg/mL (≈ 0.0639 µM) in assay [13]; 0.02 µg/mL (≈ 0.0673 µM) in assay [14]; 0.01 µg/mL (≈ 0.0336 µM) in assay [15]; 0.01 µg/mL (≈ 0.0336 µM) in assay [16].

On to `Cc1ccn2c(C(=O)NCc3ccc(Oc4ccc(F)cc4)cc3)c(C)nc2c1` [ND-9758], for which the MIC90 in [1] (setting [17]) was less than 0.002 µM; in assay [2] (setting [18]), 0.003 µM (≈ 0.00117 µg/mL); in assay [3] (setting [19]), 0.01 µM (≈ 0.00389 µg/mL); in [4] it was 0.01 µM (≈ 0.00389 µg/mL).

As for `Cc1ccn2c(C(=O)NCc3cccc(OC(C)C)c3)c(C)nc2c1` [ND-9872], the MIC90 is 0.23 µM (≈ 0.0776 µg/mL) in [1] (setting [17]), 0.28 µM (≈ 0.0945 µg/mL) in assay [2] (setting [18]), 0.89 µM (≈ 0.3 µg/mL) in assay [3] (setting [19]) and 0.87 µM (≈ 0.294 µg/mL) in [4].

As to `Cc1ccn2c(C(=O)NCc3ncc(C(F)(F)F)cc3Cl)c(C)nc2c1` [ND-9902], the MIC90 in assay [1] (setting [17]) is 0.74 µM (≈ 0.283 µg/mL); in assay [2] (setting [18]), 1.10 µM (≈ 0.421 µg/mL); in assay [3] (setting [19]), 2.96 µM (≈ 1.13 µg/mL); in assay [4], 2.95 µM (≈ 1.13 µg/mL).

Turning to `Cc1ccc2nc(C)c(C(=O)NCc3ccc(S(C)(=O)=O)cc3)n2c1` [ND-9965], the MIC90 in assay [1] (setting [17]) worked out at 0.54 µM (≈ 0.193 µg/mL); in assay [2] (setting [18]), 0.57 µM (≈ 0.204 µg/mL); in assay [3] (setting [19]) it was 1.98 µM (≈ 0.708 µg/mL); in assay [4], 2.31 µM (≈ 0.826 µg/mL).

`CO[C@H]1/C=C/O[C@@]2(C)Oc3c(C)c(O)c4c(O)c(c(/C=N/N5CCN(C)CC5)c(O)c4c3C2=O)NC(=O)/C(C)=C\C=C\[C@H](C)[C@H](O)[C@@H](C)[C@@H](O)[C@@H](C)[C@H](OC(C)=O)[C@@H]1C` [RMP, Rifampicin, reference compound]: the MIC90 is more than 1 µM in [1] (Mycobacterium tuberculosis) and 0.01 µM (≈ 0.00823 µg/mL) in [2] (Mycobacterium tuberculosis).
